In US9173882B2, “Polycyclic heteroaryl substituted triazoles useful as Axl inhibitors” (Rigel Pharmaceuticals, Inc., priority 2008, dated 2015) one finds IC50 data, which are given here for 14 compounds.

Bounds are passed on as bounds.

The assay concerns the target T1, Axl (Homo sapiens, UniProt P30530).
T1 construct: endogenous in cells; host or cells: HeLa cells
T1 sequence (P30530 26-894): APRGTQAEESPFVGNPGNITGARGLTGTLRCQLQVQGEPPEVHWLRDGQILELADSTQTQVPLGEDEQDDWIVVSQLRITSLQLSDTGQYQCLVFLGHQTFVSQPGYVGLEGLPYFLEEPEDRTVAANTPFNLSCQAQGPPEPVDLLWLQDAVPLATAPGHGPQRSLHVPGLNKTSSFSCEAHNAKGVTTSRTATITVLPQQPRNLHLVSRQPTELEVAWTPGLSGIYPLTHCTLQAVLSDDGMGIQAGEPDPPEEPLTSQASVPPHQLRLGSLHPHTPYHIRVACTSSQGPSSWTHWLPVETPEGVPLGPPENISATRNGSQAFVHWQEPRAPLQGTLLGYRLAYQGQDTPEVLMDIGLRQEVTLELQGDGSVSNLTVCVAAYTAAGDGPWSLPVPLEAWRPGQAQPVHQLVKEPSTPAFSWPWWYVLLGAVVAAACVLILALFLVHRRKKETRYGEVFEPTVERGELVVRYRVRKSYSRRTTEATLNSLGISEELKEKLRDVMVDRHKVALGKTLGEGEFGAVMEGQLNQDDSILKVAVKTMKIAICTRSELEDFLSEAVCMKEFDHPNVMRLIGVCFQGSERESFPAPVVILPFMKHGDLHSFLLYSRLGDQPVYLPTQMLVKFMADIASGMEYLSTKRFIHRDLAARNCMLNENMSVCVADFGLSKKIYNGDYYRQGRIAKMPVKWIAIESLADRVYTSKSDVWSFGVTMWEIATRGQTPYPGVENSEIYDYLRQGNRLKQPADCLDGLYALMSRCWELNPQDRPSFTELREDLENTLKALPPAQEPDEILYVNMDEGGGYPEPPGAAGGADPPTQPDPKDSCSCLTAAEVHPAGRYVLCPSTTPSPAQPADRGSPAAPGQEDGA
Kind of assay: Phospho-Akt in-cell Western assay. Type of assay: cell-based. As to conditions: Hela cells, stimulated by Axl-antibody cross-linking, phospho-Akt chemiluminescence; Table 1, formula (Ia). How it is done: Phospho-Akt in-Cell Western Assay
The compounds of the invention were tested in the following assay for their ability to inhibit Axl activity.
• Cell culture plate: 96 well assay plate (Corning 3610), white, clear bottom, tissue-culture treated. • Cells: Hela cells. • Starvation medium: For Axl stimulation: 0.5% FCS (fetal calf serum) in DMEM, plus Axl/Fc (extracellular domain of AXL fused to imunoglobulin Fc region) (R&D, 154-AL) 500 ng/mL. • For EGF (epidermal growth factor) stimulation: 0.5% FCS in DMEM (Dulbecco's modified Eagles medium). • Poly-L-Lysine 0.01% solution (the working solution): 10 μg/ml, dilute In PBS (phosphate buffered saline). • Axl antibody cross-linking: • 1st: Mouse anti-Axl (R&D, MAB154). • 2nd: Biotin-SP-conjugated AffiniPure goat anti-mouse IgG (H+L) (Jackson ImmunoResearch #115-065-003). • Fixing buffer: 4% formaldehyde in PBS. • Wash buffer: 0.1% TritonX-100 in PBS. • Quenching buffer: 3% H2O2, 0.1% Azide in wash buffer, Azide and hydrogen peroxide (H2O2) are added fresh. • Blocking buffer: 5% BSA in TBST (tris buffered saline plus 0.1% Tween 20). • Primary antibody: Rabbit anti-human Phospho-Akt antibody (Cell Signaling 9271): 1×250 diluted in blocking buffer. • Secondary antibody: HRP (horse radish peroxidase)-conjugated Goat anti-Rabbit secondary, stock solution: Jackson ImmunoResearch (Goat anti-Rabbit HRP, #111-035-144) 1:1 diluted in glycerol, store at −20° C. The working solution: 1×2000 dilution of stock in blocking buffer. • Chemiluminescent working solution (Pierce, 37030): SuperSignal ELISA (enzyme linked immunosorbant assay) Pico Chemiluminescent substrate. • Crystal Violet solution: Stock: 2.5% Crystal violet in methanol, filtered and kept at ambient temperature. The working solution: dilute the stock 1:20 with PBS immediately before use. • 10% SDS: working solution: 5% SDS (sodium dodecylsulfate), diluted in PBS Methods: Day 1:
A 96 well TC (tissue culture treated) plate was coated with 10 μg/mL poly-L-Lysine at 37° C. for 30 min, washed twice with PBS, and air-dried for 5 minutes before cells were added. Hela cells were seeded at 10,000 cells/well and the cells were starved in 100 μL starvation medium containing Axl/Fc for 24 hrs.
The cells were pre-treated with test compounds by adding 100 μL of 2× test compound to the starvation medium on the cells. The cells were incubated at 37° C. for 1 hr before stimulation.
The cells were stimulated by Axl-antibody cross-linking as follows: A 5× 1st/2nd Axl antibody mixture was made (37.5 μg/mL 1st/100 μg/mL 2nd) in starvation medium and nutated at 4° C. with thorough mixing for 1-2 hours for clustering. The resulting mix was warmed to 37° C. 50 μL of 5× Axl 1st/2nd of antibody cluster was added to the cells and the cells were incubated at 37° C. for 5 min.
After 5 minutes stimulation, the plate was flicked to remove medium and the plate was tapped onto paper towels. Formaldehyde (4.0% in PBS, 100 μL) was added to fix the cells and the cells were incubated at ambient temperature for 20 min without shaking.
The cells were washed with a plate washer buffer to remove the formaldehyde solution. The plate was flicked to removed excess wash buffer and tapped onto paper towels. Quenching buffer (100 μL) was added to each well and the cells were incubated at ambient temperature for 20 minutes without shaking.
The cells were washed with a plate washer buffer to remove the quenching buffer. Blocking buffer (100 μL) was added and the cells were incubated at ambient temperature for at least an hour with gentle shaking.
The cells were washed with a plate washer buffer and diluted primary antibody (50 μL) was added to each well (blocking buffer was added to the negative control wells instead). The plates were incubated overnight at 4° C. with gentle shaking.
The wash buffer was removed, diluted secondary antibody (100 μL) was added, and the cells were incubated at ambient temperature for 1 hour with gentle shaking. […]

Compound `Nc1nc(Nc2ccc3c(c2)CCC(N2CCC[C@@H]2C(=O)O)CC3)nn1-c1cc2c(nn1)-c1ccccc1CCC2` (stereo partly drawn) [Compound 5, 1-(6,7-dihydro-5H-benzo[6,7]cyclohepta[1,2-c]pyridazin-3-yl)-N^3-(7-((2R)-2-(carboxy)pyrrolidin-1-yl)-6,7,8,9-tetrahydro-5H-benzo[7]annulene-2-yl)-1H-1,2,4-triazole-3,5-diamine] came in with an IC50 of under 1 µM.

`COC(=O)CN(C)C1CCc2ccc(Nc3nc(N)n(-c4cc5c(nn4)-c4ccccc4CCC5)n3)cc2CC1` (centres unmarked) [Compound 4, 1-(6,7-dihydro-5H-benzo[6,7]cyclohepta[1,2-c]pyridazin-3-yl)-N^3-(7-((methoxycarbonylmethyl)(methyl)amino)-6,7,8,9-tetrahydro-5H-benzo[7]annulene-2-yl)-1H-1,2,4-triazole-3,5-diamine]: the IC50 was under 1 µM.

With `CC(=O)NC1CCc2ccc(Nc3nc(N)n(-c4cc5c(nn4)-c4ccccc4CCC5)n3)cc2CC1` (centres unmarked) [Compound 1, 1-(6,7-dihydro-5H-benzo[6,7]cyclohepta[1,2-c]pyridazin-3-yl)-N^3-(7-(acetamido)-6,7,8,9-tetrahydro-5H-benzo[7]annulene-2-yl)-1H-1,2,4-triazole-3,5-diamine], the IC50 was under 1 µM.

For the compound `CC(C)N[C@H]1CCc2ccc(Nc3nc(N)n(-c4cc5c(nn4)-c4cccnc4CCC5)n3)cc2CC1` [Compound 54, 1-(6,7-dihydro-5H-pyrido[2′,3′:6,7]cyclohepta[1,2-c]pyridazin-3-yl)-N^3-((7S)-7-((methylethyl)amino)-6,7,8,9-tetrahydro-5H-benzo[7]annulene-2-yl)-1H-1,2,4-triazole-3,5-diamine], the IC50 is under 1 µM.

Compound `Nc1nc(Nc2ccc3c(c2)CC[C@@H](NCc2ccccc2C(=O)O)CC3)nn1-c1cc2c(nn1)-c1ccccc1CCC2` [Compound 29, 1-(6,7-dihydro-5H-benzo[6,7]cyclohepta[1,2-c]pyridazin-3-yl)-N^3-((7S)-7-((2-carboxyphenyl)methyl)amino-6,7,8,9-tetrahydro-5H-benzo[7]annulene-2-yl)-1H-1,2,4-triazole-3,5-diamine] yielded an IC50 of 1 to 10 µM.

In turn, `CC(C)(C)CN[C@H]1CCc2ccc(Nc3nc(N)n(-c4cc5c(nn4)-c4ccccc4CCC5)n3)cc2CC1` [Compound 34, 1-(6,7-dihydro-5H-benzo[6,7]cyclohepta[1,2-c]pyridazin-3-yl)-N^3-((7S)-7-((2,2-dimethylpropyl)amino)-6,7,8,9-tetrahydro-5H-benzo[7]annulene-2-yl)-1H-1,2,4-triazole-3,5-diamine] displayed a half-inhibitory concentration (IC50) of under 1 µM.

The compound `CC(C)N[C@H]1CCc2ccc(Nc3nc(N)n(-c4cc5c(nn4)-c4ccccc4CCC5)n3)cc2CC1` [Compound 24, 1-(6,7-dihydro-5H-benzo[6,7]cyclohepta[1,2-c]pyridazin-3-yl)-N^3-((7S)-7-(2-propylamino)-6,7,8,9-tetrahydro-5H-benzo[7]annulene-2-yl)-1H-1,2,4-triazole-3,5-diamine] had an IC50 of under 1 µM.

In turn, `Nc1nc(Nc2ccc3c(c2)CC[C@@H](N)CC3)nn1-c1cc2c(nn1)-c1cccnc1CCC2` [Compound 46, 1-(6,7-dihydro-5H-pyrido[2′,3′:6,7]cyclohepta[1,2-c]pyridazin-3-yl)-N^3-((7S)-7-amino-6,7,8,9-tetrahydro-5H-benzo[7]annulene-2-yl)-1H-1,2,4-triazole-3,5-diamine] registered an IC50 of under 1 µM.

`Nc1nc(Nc2ccc3c(c2)CC[C@@H](NC2CCC2)CC3)nn1-c1cc2c(nn1)-c1cccnc1CCC2` [Compound 52, 1-(6,7-dihydro-5H-pyrido[2′,3′:6,7]cyclohepta[1,2-c]pyridazin-3-yl)-N^3-((7S)-7-(cyclobutylamino)-6,7,8,9-tetrahydro-5H-benzo[7]annulene-2-yl)-1H-1,2,4-triazole-3,5-diamine] registered a 50% inhibitory concentration (IC50) of under 1 µM.

Turning to `Nc1nc(Nc2ccc3c(c2)CC[C@@H](N(CC2CCCCC2)CC2CCCCC2)CC3)nn1-c1cc2c(nn1)-c1ccccc1CCC2` [Compound 27, 1-(6,7-dihydro-5H-benzo[6,7]cyclohepta[1,2-c]pyridazin-3-yl)-N^3-((7S)-7-(di(cyclohexylmethyl)amino)-6,7,8,9-tetrahydro-5H-benzo[7]annulene-2-yl)-1H-1,2,4-triazole-3,5-diamine], the IC50 lay in the range of 10 to 20 µM.

In turn, `COC(=O)[C@H]1CCCN1C1CCc2ccc(Nc3nc(N)n(-c4cc5c(nn4)-c4ccccc4CCC5)n3)cc2CC1` (stereo partly drawn) [Compound 2, 1-(6,7-dihydro-5H-benzo[6,7]cyclohepta[1,2-c]pyridazin-3-yl)-N^3-(7-((2R)-2-(methoxycarbonyl)pyrrolidin-1-yl)-6,7,8,9-tetrahydro-5H-benzo[7]annulene-2-yl)-1H-1,2,4-triazole-3,5-diamine] registered an IC50 of under 1 µM.

In the case of `CC(N[C@H]1CCc2ccc(Nc3nc(N)n(-c4cc5c(nn4)-c4ccccc4CCC5)n3)cc2CC1)C(C)(C)C` (stereo partly drawn) [Compound 25, 1-(6,7-dihydro-5H-benzo[6,7]cyclohepta[1,2-c]pyridazin-3-yl)-N^3-((7S)-7-((3,3-dimethylbut-2-yl)amino)-6,7,8,9-tetrahydro-5H-benzo[7]annulene-2-yl)-1H-1,2,4-triazole-3,5-diamine], the IC50 lay in the range of 1 to 10 µM.

Take `CC(C)CCN[C@H]1CCc2ccc(Nc3nc(N)n(-c4cc5c(nn4)-c4ccccc4CCC5)n3)cc2CC1` [Compound 39, 1-(6,7-dihydro-5H-benzo[6,7]cyclohepta[1,2-c]pyridazin-3-yl)-N^3-((7S)-7-(3-methylbutylamino)-6,7,8,9-tetrahydro-5H-benzo[7]annulene-2-yl)-1H-1,2,4-triazole-3,5-diamine]: the IC50 was under 1 µM.

Compound `Nc1nc(Nc2cccc3c2CCC(N2CCCC2)CC3)nn1-c1cc2c(nn1)-c1ccccc1CCC2` (centres unmarked) [Compound 11, 1-(6,7-dihydro-5H-benzo[6,7]cyclohepta[1,2-c]pyridazin-3-yl)-N^3-(7-(pyrrolidin-1-yl)-6,7,8,9-tetrahydro-5H-benzo[7]annulene-1-yl)-1H-1,2,4-triazole-3,5-diamine] yielded a concentration for half-maximal inhibition (IC50) of over 20 µM.

In general, IC50 refers to the concentration that gives 50% inhibition. The low end stands for greater potency, the high end for weaker potency.
